Drawing on patent US4992450A, “Piperidine opioid antagonists” (Eli Lilly and Company, priority 1989, dated 1991), this text covers ED50, Ki and ED20 for two compounds.

The target of one experiment is T1, kappa receptors (Rattus norvegicus, UniProt P34975).
T1 construct: sixty male Long-Evans hooded rats; from tissue; host or cells: whole living male Long-Evans hooded rats (in vivo)
Put plainly: Rat diuresis assay, antagonism of bremazocine-induced urination. Format: in vivo, male Long-Evans hooded rats. To be noted: sc, rats, s.c., urinary output reduced to 50% of effect of 0.08 mg/kg bremazocine alone.

Experiment [1] deals with T2, mu receptor (Mus musculus, UniProt P42866).
T2 construct: Five CF-1 male mice (Charles River, Portage, Mich.); from tissue; host or cells: whole living CF-1 male mice (in vivo)
T2 sequence (P42866 whole entry): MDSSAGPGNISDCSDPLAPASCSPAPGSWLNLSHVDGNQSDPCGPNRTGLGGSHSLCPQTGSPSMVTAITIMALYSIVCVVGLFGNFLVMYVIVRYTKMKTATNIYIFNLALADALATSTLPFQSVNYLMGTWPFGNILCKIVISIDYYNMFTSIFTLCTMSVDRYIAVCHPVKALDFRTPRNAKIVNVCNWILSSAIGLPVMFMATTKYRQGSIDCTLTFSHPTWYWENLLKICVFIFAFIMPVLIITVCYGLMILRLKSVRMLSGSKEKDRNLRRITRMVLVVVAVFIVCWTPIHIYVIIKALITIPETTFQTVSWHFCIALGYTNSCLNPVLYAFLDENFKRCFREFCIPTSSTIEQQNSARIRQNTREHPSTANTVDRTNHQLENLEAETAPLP
Put plainly: Mouse writhing assay, antagonism of morphine analgesia (mu). Type of experiment: in vivo, CF-1 male mice. To be noted: sc, read-out: Mu AD50.

Experiment [2] concerns the target T3, kappa receptor (Cavia porcellus, UniProt P41144).
T3 construct: guinea pig cortex for the kappa site; from tissue; host or cells: guinea pig cortex, frozen pellet fraction
Briefly: Opioid receptor binding displacement assay, kappa site (guinea pig cortex, 3H ligand). Details: species or system male Hartley guinea pigs. The procedure:
(§1) This assay was conducted by the following procedure.
(§2) Male Sprague Dawley rats for mu and delta site experiments and male Hartley guinea pigs for kappa site experiments were sacrificed via decapitation and the brains were removed. The brain tissue, rat whole brain minus cerebellum for mu and delta sites and guinea pig cortex for the kappa site, was homogenized in a Teflon and glass tissue homogenizer. A supernatant I, pellet IV, fraction was frozen in a nitrogen freezer at 1.33 g/ml concentration and stored for not longer than five weeks prior to use. Pellets were rehydrated with physiological buffer prior to use.
(§3) The reaction was initiated by the addition of the rehydrated tissue which has been preincubated at 37° C. for 20 minutes. The reaction mixture was incubated in a 37° C. water bath for 20 minutes. The reaction was terminated by rapid filtration, (Amicon vacuum manifolds), through Whatman GF/C glass filters that had been presoaked in Krebs-Hepes buffer pH 7.4. The filters were then washed 2× with 5 ml of ice cold Krebs-Hepes buffer pH 7.4. Washed filters were placed in scintillation vials and 10 ml PCS, (Amersham), was added and samples counted in a Searle D-300 beta counter. Means and standard error statistics were calculated for triplicate experimental determinations in certain cases. The procedure was slightly modified for the kappa site. The tissue was pretreated with 100 nM concentrations of mu and delta receptor site blockers. The incubation time for the reaction mixture was 45 minutes at 37° C.

Experiment [3] addresses T4, kappa receptor (Mus musculus, UniProt P33534).
T4 construct: Five CF-1 male mice (Charles River, Portage, Mich.); from tissue; host or cells: whole living CF-1 male mice (in vivo)
Put plainly: in vivo. Details: species or system CF-1 male mice. Particulars: sc, read-out: Kappa AD50.

The target in experiment [4] is T5, mu receptor (Rattus norvegicus, UniProt P33535).
T5 construct: rat whole brain minus cerebellum for mu and delta sites; from tissue; host or cells: rat whole brain minus cerebellum, frozen pellet fraction
T5 sequence (P33535 whole entry): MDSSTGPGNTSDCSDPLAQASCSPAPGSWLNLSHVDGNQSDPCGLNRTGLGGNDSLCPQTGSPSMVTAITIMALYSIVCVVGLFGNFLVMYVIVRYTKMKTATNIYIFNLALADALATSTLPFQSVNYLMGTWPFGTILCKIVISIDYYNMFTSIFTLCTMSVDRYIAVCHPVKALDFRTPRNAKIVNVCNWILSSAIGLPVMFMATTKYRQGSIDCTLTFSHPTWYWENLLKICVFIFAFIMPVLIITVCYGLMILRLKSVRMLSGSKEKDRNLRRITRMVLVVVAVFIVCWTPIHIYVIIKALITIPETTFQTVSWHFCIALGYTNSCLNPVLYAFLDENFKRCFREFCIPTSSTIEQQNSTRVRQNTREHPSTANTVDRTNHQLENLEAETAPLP
Put plainly: Opioid receptor binding displacement assay, mu site (rat whole brain minus cerebellum, 3H ligand). Details: species or system Male Sprague Dawley rats. The procedure:
as §1, §2, §3

Experiment [5] deals with meal fed obese Zucker rats. Briefly: Food consumption assay in meal fed obese Zucker rats. Type of experiment: in vivo. To be noted: Rattus norvegicus, sc, 4 h, amount to decrease food consumption 20% during first four hours. In a few lines:
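Obese Zucker rats, 3-4 months old (two male, two female per group), meal-trained to 8 h daily feeding, dosed subcutaneously in saline with 10% DMSO. Food and water intake over first 4 h expressed as percent of same-day control; ED20 is dose (mg/kg) cutting 4 h food intake by 20%.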

[6] abbreviates: 2 h, two hours after injection, read-out: AD50 Two Hours.
[7] abbreviates: 5 h, five hours after injection, read-out: AD50 Five Hours.

Where a name gives a salt, the structure may show the parent alone. Read-outs that look alike come from different tables or passages of the source.

T1 sequence (P34975 whole entry): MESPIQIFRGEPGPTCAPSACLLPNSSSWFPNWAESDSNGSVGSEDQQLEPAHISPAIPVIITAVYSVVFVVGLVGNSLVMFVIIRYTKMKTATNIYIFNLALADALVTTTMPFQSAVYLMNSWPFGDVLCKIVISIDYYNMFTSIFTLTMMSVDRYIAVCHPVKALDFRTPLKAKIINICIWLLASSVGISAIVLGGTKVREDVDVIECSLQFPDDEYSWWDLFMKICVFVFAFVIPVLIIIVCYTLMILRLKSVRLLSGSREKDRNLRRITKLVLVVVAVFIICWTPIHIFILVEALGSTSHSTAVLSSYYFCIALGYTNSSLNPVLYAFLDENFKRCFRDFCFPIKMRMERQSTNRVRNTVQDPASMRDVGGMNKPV
T3 sequence (P41144 whole entry): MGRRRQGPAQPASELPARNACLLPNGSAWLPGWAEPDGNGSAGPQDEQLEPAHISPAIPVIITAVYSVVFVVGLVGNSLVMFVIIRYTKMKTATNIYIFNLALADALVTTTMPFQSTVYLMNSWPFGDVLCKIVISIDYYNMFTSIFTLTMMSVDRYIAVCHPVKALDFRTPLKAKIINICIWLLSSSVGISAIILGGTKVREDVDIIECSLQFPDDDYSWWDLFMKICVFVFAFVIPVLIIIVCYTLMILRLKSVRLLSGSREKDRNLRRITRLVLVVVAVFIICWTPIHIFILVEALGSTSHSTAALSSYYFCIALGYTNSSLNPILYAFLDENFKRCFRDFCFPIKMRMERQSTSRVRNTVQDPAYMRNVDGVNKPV
T4 sequence (P33534 whole entry): as the sequence (P34975 whole entry) above, with E11D, A17S, P51S, V308A counted along it

Take `CC(C)CCCN1CCC(C)(c2cccc(O)c2)C(C)C1` (stereo not drawn) [Example 15, trans-(±)-1-(4-Methylpentyl)-3,4-dimethyl-4-(3-hydroxyphenyl)piperidine hydrochloride]: the ED50 at kappa receptors (setting [6]) is 0.27 mg/kg; on kappa receptors (setting [7]), 0.39 mg/kg; at mu receptor [1], 0.11 mg/kg; on kappa receptor [3], 0.09 mg/kg. Further, the values for the Ki at kappa receptor [2] and at mu receptor [4] were 9.43 ± 1.67 nM and 1.25 ± 0.4 nM, respectively. The compound further gave an ED20 in experiment [5] of 3.65 mg/kg.

In the case of `C[C@H]1CN(CCC(O)c2ccccc2)CC[C@@]1(C)c1cccc(O)c1` (relative stereo) [Compound A, 4β-(3-Hydroxyphenyl)-3β,4α-dimethyl-α-phenyl-1-piperidinepropanol hydrochloride, reference compound], the ED50 was found to be 4.09 mg/kg at kappa receptors (setting [6]), 2.65 mg/kg at kappa receptors (setting [7]), 0.05 mg/kg at mu receptor [1] and 0.92 mg/kg at kappa receptor [3]. Moreover, the Ki at kappa receptor [2] (guinea pig cortex, pH 7.4, 37° C., 45 minutes, mu and delta sites blocked (100 nM), read-out: Ki Kappa) came to 22.7 nM; at mu receptor [4] (rat brain minus cerebellum, pH 7.4, 37° C., 20 minutes, read-out: Ki Mu), 1 nM. The same compound yielded an ED20 in experiment [5] of 0.55 mg/kg.
